According to publication PMC9573813 (Molecular Diversity, 2022):

Tested on: not listed separately
Assay: Cytotoxicity evaluation on RAW 264.7 macrophages
Format: cell-based
Conditions: mouse
O=Cc1cc(Cn2cc(F)c(=O)[nH]c2=O)ccc1O [Compound 9, 5-((5-Fluoro-2,4-dioxo-3,4-dihydropyrimidin-1(2H)-yl)methyl)-2-hydroxybenzaldehyde] showed a CC50 greater than 100 µM.
Work on CCCCCCCCCCCCCCCCOP(=O)([O-])OCC[N+](C)(C)C [Miltefosine, reference compound] yielded a CC50 of 52.2 ± 11.1 µM.
Compound O=Cc1cc(Cn2ccc(=O)[nH]c2=O)ccc1O [Compound 7, 5-((2,4-Dioxo-3,4-dihydropyrimidin-1(2H)-yl)methyl)-2-hydroxybenzaldehyde] has a CC50 greater than 100 µM.
Work on Cc1cn(Cc2ccc(O)c(C=O)c2)c(=O)[nH]c1=O [Compound 8, 2-Hydroxy-5-((5-methyl-2,4-dioxo-3,4-dihydropyrimidin-1(2H)-yl)methyl) benzaldehyde] yielded a CC50 greater than 100 µM.
Cc1nn(Cc2ccc(O)c(C=O)c2)c(=O)[nH]c1=O [Compound 10, 2-Hydroxy-5-((6-methyl-3,5-dioxo-4,5-dihydro-1,2,4-triazin-2(3H)-yl)methyl) benzaldehyde] showed a CC50 of 56.1 ± 16.8 µM.

Tested on: L. donovani intramacrophage amastigotes
Assay: not given
Format: cell-based, Leishmania donovani
Conditions: CC50 RAW 264.7 / IC50 intramacrophage amastigotes
With Cc1nn(Cc2ccc(O)c(C=O)c2)c(=O)[nH]c1=O [Compound 10, 2-Hydroxy-5-((6-methyl-3,5-dioxo-4,5-dihydro-1,2,4-triazin-2(3H)-yl)methyl) benzaldehyde] the “SI (CC50/IC50)” value was 1.87.

Tested on: not listed separately
Assay: Cytotoxicity, cell growth
Format: cell-based
Conditions: human, human embryonic lung (HEL) fibroblasts
Nc1ccn(C[C@@H](CO)OCP(=O)(O)O)c(=O)n1 [Cidofovir (CDV), Cidofovir] showed a CC50 greater than 317 µM.
Nc1nc(O)c2ncn(COC(CO)CO)c2n1 [Ganciclovir (GCV), Ganciclovir] showed a CC50 greater than 394 µM.
Nc1nc2c(ncn2COCCO)c(=O)[nH]1 [Acyclovir (ACV), Acyclovir] gave a CC50 greater than 444 µM.
